Source: PubChem BioAssay AID1902 (Broad Institute, 2009)
Active and inactive are the calls of the source.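 How the source made its calls: active means EC50 no more than a set limit of log units above the highest dose; inactive means the rest.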

The compounds below were run against S. pyogenes SKKanGAS, kanamycin survival, BacTiterGlo, 6 h (assay: SKKanGAS survival reduction under kanamycin, dose response, streptokinase promoter inhibitor project, SKKanGAS strain, luminescence, dose confirmation (AID 1902);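 further: lower survival reflects blocked streptokinase promoter driving kanamycin resistance gene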).

SMILES | EC50
c1ccc(-c2onc(-c3ccco3)c2-c2ccc3[nH]ccc3c2)cc1 | 4.2 µM
Oc1[nH]c2ccc(Br)cc2c1N=NC(=S)Nc1ccc(F)cc1 | 0.115 µM
O=C(N/N=C/c1c(O)n(C2CCCCC2)c(=S)[nH]c1=O)c1ccccc1O | 0.601 µM
COc1cccc(/C=N/NC(=O)c2c(C)nc3ccc(Cl)cn23)c1O | 5.63 µM
CCCCCCCCOC(=O)/C=C/c1c(C)[nH]c(=O)[nH]c1=O | 0.788 µM
Cc1ccc(C(=O)NNC(=S)NC(=O)c2ccc(Cl)cc2Cl)cc1 | 0.09 µM
CSCC[C@H](NC(=O)c1nn(C)c(=O)c2ccccc12)c1nc2ccccc2[nH]1 | 2.85 µM
CC(C)C[C@H](NC(=O)c1[nH]cnc1C(=O)N[C@@H](C)c1ccccc1)C(=O)OCc1ccccc1 | 1.16 µM
CCOC(=O)c1c(-c2ccc(C)o2)csc1NC(=O)COC(=O)c1ccc(NC(N)=O)cc1 | 2.53 µM
Oc1c(N=NC(=S)Nc2ccccc2F)c2ccccc2n1Cc1cccc(Cl)c1 | 0.658 µM
CCc1nc(N)nc(N)c1-c1ccc(Cl)cc1 | 3.99 µM
Cc1cc(N/N=C/c2ccc(O)c(C)c2O)nc(-c2ccccc2O)n1 | 3.09 µM
CCOC(=O)c1c(-c2ccc(OC)cc2)csc1/N=C/C1=C(O)CCCC1=O | 14.5 µM
CCCCC(=O)NC(c1ccc(Cl)cc1Cl)c1ccc2cccnc2c1O (centres undefined) | 1.97 µM
CCOC(=O)c1nnn(-c2nonc2-n2cccc2)c1CN1CCC(C)CC1 | 8.02 µM
O=C(CN1C(=O)S/C(=C\C=C\c2ccccc2)C1=O)Nc1ccccc1C(=O)O | 5.62 µM
Cc1ccc(NC2=C/C(=N\S(=O)(=O)c3cccs3)c3ccccc3C2=O)c(C)c1 | 1.66 µM
C/C(=N\NC(=O)c1ccccc1O)C1C(=O)c2ccccc2C1=O | 4.69 µM
Cc1nc2ccccc2n1/N=C/c1ccc([N+](=O)[O-])s1 | 2.39 µM
Cc1ccc2c(Cl)cc(Cl)c(OCC(=O)NC(C)(C)C)c2n1 | 3.14 µM
COc1ccc(C2CC(O)(c3ccccc3)Oc3c(C)ccc(C)c32)cc1 (centres undefined) | > 15 µM (inactive)
Brc1ccc2[nH]c3c(N4CCc5ccccc5C4)ncnc3c2c1 | 6.22 µM

SMILES | EC50
CC(C)n1nc(C(=O)Nc2nnc(SCc3c(Cl)cccc3Cl)s2)c2ccccc2c1=O | 1.68 µM
CCC(CC)c1nn2c(N)c(/C=C3\C(C)=Nc4ccccc43)c(=O)nc2s1 | 2.57 µM
O=c1[nH]c(CN2CC=C(c3ccccc3)CC2)nc2scc(-c3cccs3)c12 | 3.87 µM
CN(C)CCOc1ccc(/C(=C(/CCCl)c2ccccc2)c2ccccc2)cc1 | 4.95 µM
O=C(NC(NC(=S)Nc1ccc(Cl)c(Cl)c1)C(Cl)(Cl)Cl)c1ccco1 (centres undefined) | 3.41 µM
CSc1nc2nccc(-c3ccc(-c4ccccc4)cc3)n2n1 | 3.08 µM
COc1c(N2CCN(C(=S)Nc3ccccc3F)C(C)C2)c(F)cc2c(=O)c(C(=O)O)cn(C3CC3)c12 (centres undefined) | 2.67 µM
CCOC(=O)C1=C(N)c2ccccc2CC1C1CCCC1 (centres undefined) | 3.26 µM
O=C(Cc1cccs1)N/N=C/c1ccco1 | 2.9 µM
COc1ccc2cc(C(=O)C3CCCN(Cc4cccc(C)n4)C3)ccc2c1 (centres undefined) | 1.84 µM
COc1cc(/C=N/Nc2nc(Nc3ccccc3)nc(-n3nc(C)cc3C)n2)cc(OC)c1OC | 3.14 µM
Oc1ccc2ccccc2c1/C=N/Nc1nnc(-c2ncc[nH]2)c2ccccc12 | 1.55 µM
Cc1[nH]n2c(=O)cc(-c3ccc([N+](=O)[O-])cc3)nc2c1-c1ccccc1 | 0.319 µM
Cc1nc(N)sc1N=Nc1ccc(F)cc1 | 2.13 µM
COc1cccc(C2CC(c3cccs3)=NN2C(=O)CSc2nc3c(cnn3-c3ccc(F)cc3)c(=O)[nH]2)c1OC (centres undefined) | 2.03 µM
CCCC(=O)NC(c1ccc(C)cc1)c1ccc2cccnc2c1O (centres undefined) | 4.16 µM
COc1c(N2CCN(C(=S)Nc3ccc(F)cc3)C(C)C2)c(F)cc2c(=O)c(C(=O)O)cn(C3CC3)c12 (centres undefined) | 3.37 µM
C/C(=N\NC(=O)c1nnn(-c2nonc2N)c1CN(C)c1ccccc1)c1ccccc1O | 2.75 µM
CCn1c(SCC(=O)N2CC(C)OC(C)C2)nc2c([nH]c3ccccc32)c1=O (centres undefined) | > 15 µM (inactive)
CCn1c(C)nc2cc(C(=O)NNC(=S)NC(=O)c3ccc(OC)cc3)ccc21 | 5.87 µM
CC(C)CCn1c(=O)c(C(=O)N/N=C/c2cccc(F)c2)c(O)c2ccccc21 | 1.17 µM
Cc1ccc(C(=O)CC(=O)c2ccccc2C)c(O)c1 | 5.18 µM

SMILES | EC50
Cc1c(Cl)cccc1NC(=S)NCCC(c1ccccc1)c1ccccc1 | 9.25 µM
CC(=O)Oc1ccccc1C1=NN(C(=O)/C=C/c2ccccc2)C(c2ccccc2)C1 (centres undefined) | 5.15 µM
NS(=O)(=O)c1ccc(N2N=C(c3ccccc3)CC2c2ccc(F)cc2)cc1 (centres undefined) | 5.28 µM
O=C(N/N=C/c1ccc([N+](=O)[O-])o1)c1cc(-c2cccc(Br)c2)nc2ccccc12 | 0.422 µM
COc1ccc(-c2cc(C3CCN(c4ccc(C(C)=O)cc4[N+](=O)[O-])CC3)[nH]n2)cc1 | 2.76 µM
C/C(=N\NC(=O)COc1ccc(C)cc1C(C)C)c1cc2ccccc2o1 | 11 µM
COc1cc(Br)cc(/C=N/NC(=O)Cc2ccc(C(F)(F)F)cc2[N+](=O)[O-])c1O | 1.1 µM
Cc1ccc(C(=O)NNC(=S)NC(=O)c2ccco2)cc1 | 0.905 µM
COc1ccc(-c2nnc(NC(=O)c3cc(Cl)ccc3Cl)o2)cc1 | 0.814 µM
Nc1nc(NCc2ccco2)nc(N2CCCCCC2)c1[N+](=O)[O-] | 4.09 µM
Oc1c(C(c2ccc(Cl)cc2)N2CCCC2)cc(Cl)c2cccnc12 (centres undefined) | 1.53 µM
CC1=NN(/C(=N\c2nnc(C)s2)Nc2ccc(C(C)(C)C)cc2)[C@H](c2ccc(C)cc2)S1 | 7.14 µM
Fc1ccc(Cn2cccc2C2=NC(c3ccccc3)CO2)cc1 (centres undefined) | 7.34 µM
O=S(=O)(c1ccccc1)N1CCN=C1SCc1c(F)cccc1Cl | 8.15 µM
COc1ccc(Cn2c(C3CCCCC3)nc3c(c(=O)c4ccccc4n3C)c2=O)cc1 | 3.2 µM
CC(C)(C)OC(=O)NCCCC[C@H](NC(=O)c1[nH]cnc1C(=O)Nc1ccc(Cl)cc1)C(=O)OC(C)(C)C | 2.19 µM
Cc1c(NCc2cc(Cl)cc(Cl)c2O)c(=O)n(-c2ccccc2)n1C | 3.39 µM
Cc1ccc(NC(=S)NC2CCSc3ccccc32)cc1C (centres undefined) | 4.63 µM
O=C(CCCSc1ccccc1)Nc1nc(-c2ccccn2)cs1 | 6.17 µM
O=C(Cn1sc2ccccc2c1=O)NC12CC3CC(CC(C3)C1)C2 | 1.12 µM
O=C(NC(=S)NNC(=O)c1cccs1)c1ccccc1 | 5.73 µM
c1ccc(-n2c3ccccc3c3ccccc32)cc1 | 4.4 µM

SMILES | EC50
Cc1sc2nc(-c3ccccn3)[nH]c(=O)c2c1-c1ccccc1 | 1.28 µM
CCCCNC(=O)c1ccc(NC(C)=O)c(Cl)c1 | > 15 µM (inactive)
CCc1ccc(/C=C2\SC(=S)N(CCCC(=O)Nc3ccccc3C(=O)O)C2=O)cc1 | 3.35 µM
Cc1c(C(=O)Nc2nonc2-c2ccc(F)cc2)oc2ccc(F)cc12 | 4.06 µM
OC(COc1ccc2ccccc2c1Br)Cn1cnc(-c2ccccc2)c1 (centres undefined) | 5.71 µM
CCOC(=O)c1ccc(NC(=O)c2sc3nc4n(c(=O)c3c2C)CCC4)cc1 | 1.99 µM
Fc1ccc(Br)cc1C1C=C(c2ccc(Br)s2)Nc2ncnn21 (centres undefined) | 6.39 µM
COc1ccc(-c2[nH]ncc2N=Nc2cc(C)cc(C)c2)cc1 | 4.27 µM
Cc1oc2cc(Br)c(O)c(Br)c2c1-c1ccccc1 | 3.28 µM
CC(C)(C)c1ccc(Cn2ccc(-c3ccc4c(c3)OCO4)n2)cc1 | 7.09 µM
O=C(Cc1ccc(Br)cc1)Nc1nc2ccccc2[nH]1 | 4.55 µM
CCCCn1c(-c2ccco2)nc2oc3ccccc3c(=O)c2c1=O | 15.1 µM
Cc1cc2occ(CC(=O)NC3=NCCS3)c2cc1C(C)C | 4.35 µM
Oc1ccc(Cl)cc1-c1cc(-c2cccc(Br)c2)n[nH]1 | 3.62 µM
C=CCn1c(N2C(=O)CC(Cc3ccccc3)C2=O)nc2ccccc21 (centres undefined) | 4.5 µM
c1ccc(-c2nc(NCc3ccco3)c3ccccc3n2)nc1 | 4.7 µM
Cc1ccc(-n2c(SCC(=O)Nc3ccc4c5c(cccc35)CC4)nc(O)cc2=O)cc1 | 11.9 µM
O=C(NNC(=O)c1cc(-c2ccc(Cl)cc2)nc2ccccc12)c1csc(N2CCOCC2)n1 | 3.78 µM
COc1cccc(/C=C/C(=C2/C(=O)N(c3ccccc3)N=C2C)c2ccc(Br)cc2)c1OC | > 15 µM (inactive)
O=C(Nc1nnc(C2=COCCO2)o1)c1ccc(Cc2ccccc2)cc1 | 1.47 µM
COc1ccc(C(=O)OCC(=O)Nc2nnc(-c3ccccc3)o2)cc1 | 6.54 µM
CCOC(=O)c1c(NC(=S)N2CCN(C)CC2)sc(C)c1-c1ccccc1 | 6.51 µM

SMILES | EC50
Cc1cc2c(cc1C)-c1c(ssc1=Nc1ccc(S(N)(=O)=O)cc1)C(C)(C)N2 | 11.7 µM
Cc1ccccc1OCC(=O)Nc1ccccc1N1CCC(C)CC1 | 7.48 µM
Cc1cc(C)c2nc(NNC(=O)c3ccc(S(=O)(=O)N4CCCCC4)cc3)sc2c1 | 1.86 µM
Cc1cc2nc(N3C(=O)CNC3=S)sc2cc1C | 2.21 µM
Cc1cccc(NC(=O)c2nc[nH]c2C(=O)N[C@@H](Cc2ccccc2)C(=O)OC(C)(C)C)c1 | 1.44 µM
O=C(Nc1nnc(C2COc3ccccc3O2)o1)c1ccc(F)cc1 (centres undefined) | 1.47 µM
CC(=O)OCCCNc1cc(Sc2nc3ccccc3s2)c2nonc2c1[N+](=O)[O-] | 2.43 µM
COc1cc(/C=C/c2ccc3cccc(O)c3n2)cc(OC)c1OC | 3.66 µM
O=C1C=C(N2CCCCC2)c2ccccc2C1=O | 3.67 µM
Cc1ccc(O)c(C(=O)CC(=O)c2ccc(C(C)(C)C)cc2)c1 | 2.6 µM
N#C/C(=C(/O)c1ccc2c(c1)OCO2)c1nc2cc(C(F)(F)F)ccc2s1 | 2.43 µM
CCOc1ccccc1C(=O)OCC(=O)Nc1nnc(-c2ccccc2)o1 | 6.94 µM
CCCN(CC(=O)Nc1cc(Cl)cc(Cl)c1)CC(=O)Nc1ccc(F)c(F)c1F | 4.87 µM
O=C(Cc1ccccc1)Nn1c(O)c(/C=C2\C=Nc3ccccc32)sc1=S | 14.6 µM
Cc1cccc(/C=C/C(=O)c2cc(Br)ccc(=O)c2O)c1 | 0.818 µM
Cc1cc(/C=C2\SC(=S)N(C)C2=O)c(C)n1-c1ccccc1O | 6.72 µM
CC(C)NC(=O)NC(=O)CSc1nnc(COc2ccccc2F)n1C(C)C1CC2CCC1C2 (centres undefined) | 6.58 µM
Cc1ccc(NC(=O)CN(C)Cc2nc3c(Br)cc(Br)cc3c(=O)[nH]2)cc1 | 3.79 µM
COc1ccccc1Sc1nc(-c2ccccn2)ncc1OC | 14.7 µM
O=C(NC(=S)Nc1ccc(N2CCOCC2)c(Cl)c1)c1cccs1 | 9.89 µM
O=C(NCCS(=O)(=O)N1CCN(c2ccccc2F)CC1)C1CC(=O)N(c2ccc(F)cc2)C1 (centres undefined) | > 15 µM (inactive)
